We go through 4 compounds from patent publication US9717751B2, “Chitin or derivatives thereof for the prevention and/or treatment of parasitoses” (LESAFFRE ET COMPAGNIE, priority 2012, dated 2017).

The test system of data set [1] is C. parvum. Kind of data set: Preincubation test: C. parvum oocysts preincubated 24 h with compound, then infection of HCT-8 cells. Format: cell-based, Cryptosporidium parvum. Particulars: preincubation 24 h, 500 μg/ml; for viability at 500 µg/mL: Cryptosporidium parvum, T+ = 100, read-out: % of viable sporozoites; for Number of sporozoites: single tests; for Number of sporozoites, Mean: triplicate mean. The protocol: (§1) Two cell models were tested: HCT-8 cells (human ileocecal adenocarcinoma cells) and Caco-2 cells (human colonic adenocarcinoma cells). The Iowa Cryptosporidium parvum strain (Waterborne inc., New Orleans, La., USA) is used for the tests. The infection is carried out on cells at 70%-80% confluence, cultured in a monolayer on collagen-coated coverslips in 24-well plates. The supernatant of the cells in a monolayer is replaced with 3 ml of culture medium to which 1×10^4 C. parvum oocysts are added. After incubation for 3 hours in a humid incubator at 37° C. and 5% CO2, the supernatant is replaced with 3 ml of culture medium and incubated for 48 h in a humid incubator at 37° C., 5% CO2 and 80% humidity. In each well of a plate, 1×10^4 oocysts are brought into contact with 500 μg/ml of paromomycin, chitosan or NAG. The plates are incubated for 24 h in a humid incubator at 37° C. and 5% CO2. The cells are then infected as indicated above. The intracellular oocysts are stained after fixing the cells with methanol. The labeling is carried out using a specific conjugated polyclonal antibody (Sporo-Glo 20×Waterborne inc., New Orleans, La., USA). The coverslips are then mounted on slides. The intracellular oocysts are counted with a fluorescence microscope. On each slide, 6×50 fields randomly chosen over the entire surface area of the slide are counted. The results obtained are a triplicate mean. The data are analyzed by ANOVA. A p-value of less than or equal to 0.05 is considered to be significant. The tested compounds are incubated for 24 h with C. parvum oocysts before the in vitro infection at a dose of 500 μg/ml.

In a further data set the test system is CMT-93 cells. Kind of data set: Chemokine production by epithelial cells (quantitative RT-PCR). Format: cell-based, murine. The note with it: 24 h incubation. On the procedure: The tests are carried out on cells of the CMT-93 murine line (mycoplasma-free) cultured in complete medium comprising 10% of FCS (Fetal Calf Serum) or on dendritic cells derived from bone marrow (immature) in the presence of GM-CSF (Granulocyte Macrophage Colony Stimulating Factor) added regularly to the culture for 9 days. Chemokine production by the epithelium or other intestinal cells is important for the recruitment of the inflammatory cells required for protection against cryptosporidiosis in newborns. Chemokine production by epithelial cells is measured by quantitative RT-PCR (quantification by incorporation of Sybr green) after incubation of CMT-93 cells with the various compounds for 24 h.

The subject of data set [2] is C. parvum. Description: Direct test: compound added to C. parvum-infected Caco-2 cells. Format: cell-based, Cryptosporidium parvum. Particulars: direct addition, 500 μg/ml; for viability at 500 µg/mL: Cryptosporidium parvum, T+ = 100, read-out: % of viable sporozoites; for Number of sporozoites: single tests; for Number of sporozoites, Mean: triplicate mean. The protocol:
(§2) Two cell models were tested: HCT-8 cells (human ileocecal adenocarcinoma cells) and Caco-2 cells (human colonic adenocarcinoma cells).
(§3) The Iowa Cryptosporidium parvum strain (Waterborne inc., New Orleans, La., USA) is used for the tests.
(§4) The infection is carried out on cells at 70%-80% confluence, cultured in a monolayer on collagen-coated coverslips in 24-well plates.
(§5) The supernatant of the cells in a monolayer is replaced with 3 ml of culture medium to which 1×10^4 C. parvum oocysts are added. After incubation for 3 hours in a humid incubator at 37° C. and 5% CO2, the supernatant is replaced with 3 ml of culture medium and incubated for 48 h in a humid incubator at 37° C., 5% CO2 and 80% humidity.
(§6) The culture medium of the infected cells is replaced with 1 ml of culture medium to which the test compound is then added, at a final concentration of 500 μg/ml.
(§7) The plates are incubated for 48 h in a humid incubator at 37° C. and 5% CO2.
(§8) The intracellular oocysts are stained after fixing the cells with methanol. The labeling is carried out using a specific conjugated polyclonal antibody (Sporo-Glo 20×Waterborne inc., New Orleans, La., USA). The coverslips are then mounted on slides. The intracellular oocysts are counted with a fluorescence microscope.
(§9) On each slide, 6×50 fields randomly chosen over the entire surface area of the slide are counted.
(§10) The results obtained are a triplicate mean. The data are analyzed by ANOVA. A p-value of less than or equal to 0.05 is considered to be significant.
(§11) The various compounds are tested at a dose of 500 μg/ml.

The test system of data set [3] is C. parvum. Kind of data set: Direct test: compound added to C. parvum-infected HCT-8 cells. Format: cell-based, Cryptosporidium parvum. Particulars: direct addition, 500 μg/ml; for viability at 500 µg/mL: Cryptosporidium parvum, T+ = 100, read-out: % of viable sporozoites; for Number of sporozoites: single tests; for Number of sporozoites, Mean: triplicate mean. On the procedure:
as §2, §3, §4, §5, §6, §7, §8, §9, §10, §11

The test system of data set [4] is C. parvum. Kind of data set: Preincubation test: C. parvum oocysts preincubated 24 h with compound, then infection of Caco-2 cells. The data set is classed as cell-based, Cryptosporidium parvum. The note with it: preincubation 24 h, 500 μg/ml; for viability at 500 µg/mL: Cryptosporidium parvum, T+ = 100, read-out: % of viable sporozoites; for Number of sporozoites, Mean: triplicate mean. On the procedure: as §1

The subject of data set [5] is C. parvum. Kind of data set: Effect of the compounds on C. parvum development in CMT-93 murine cells. The data set is classed as cell-based, Cryptosporidium parvum. Particulars: CMT-93 cells, 18 μg/ml. The protocol:
The C. parvum oocysts used were isolated from feces (stools) of calves that had been experimentally infected (by INRA [French National Institute for Agricultural Research] of Tours).
The tests are carried out on cells of the CMT-93 murine line (mycoplasma-free) cultured in complete medium comprising 10% of FCS (Fetal Calf Serum).
Interferon-γ at 10 ng/ml is used as a positive control. This is because partial inhibition of C. parvum multiplication in enterocytes under the action of this cytokine has been described.
The cells of the CMT-93 line are seeded in a proportion of 3.6×10^5 cells per well.
The test compounds are added after 8 h.
After 24 h, the cells are lysed with trypsin and labeled with a fluorescent lectin (VVL-FITC), in order to be able to find the infected cells with a fluorescence microscope. The number of infected cells is found manually.

Several values for one entry are separate records, joined by “and”; a condition that tells them apart may be missing. Equal entries are not always repeated. Structures can show the parent of a compound that is named as a salt.

As for `CC(=O)N[C@H]1C(O)O[C@H](CO)[C@@H](O)[C@@H]1O` (stereo partly drawn) [NAG, N-acetylglucosamine], the viability at 500 µg/mL with C. parvum [1] was determined as 0.99%; in the data set with C. parvum [2] (48 h) it was 64.8%; in the data set with C. parvum [3] (48 h), 11.6%; with C. parvum [4], 2.61%. For the same compound, the “reduction of parasite development” value in the data set with C. parvum [1] was 99.0%; in the data set on C. parvum [4] it was 97.4%. The Number of sporozoites in the data set with C. parvum [1] is 12 and 14 and 7; in the data set on C. parvum [2] (48 h), 656 and 485 and 337; in the data set on C. parvum [3] (48 h), 172 and 131 and 99; in the data set with C. parvum [4] (single tests), 21 and 39 and 31. Besides, the “Number of sporozoites, Mean” value in the data set on C. parvum [1] came out at 11; with C. parvum [2] (48 h), 571; in the data set on C. parvum [3] (48 h), 134; in the data set with C. parvum [4], 30. Further, the “production of chemokines CXCL10 and CCL20, ranking of the products” value with CMT-93 cells was “most effective”. Moreover, the “reduction in parasite development” value was determined as 35.2% in the data set with C. parvum [2] and 88.4% in the data set on C. parvum [3]. Moreover, in the data set on C. parvum [3], the “effectiveness compared with paromomycin” value is on record as “more effective than paromomycin”. For the same compound, the “reduction of parasite multiplication compared with the nontreated control” value with C. parvum [5] stood at 43%.

As for “poly-(N-deacetyl-D-glucosamine) [insoluble chitosan]”, the infected cells result with C. parvum [5] (nontreated control 50% of infected cells) is given as “approximately 40%”.

chitosan hydrochloride: the results for the “reduction of parasite development” value in the data set with C. parvum [1] and in the data set on C. parvum [4] were 95.7% and 97.6%, respectively. The “% of viable sporozoites” value in the data set with C. parvum [1] (T+ = 100) was 4.3%; with C. parvum [2] (48 h, T+ = 100) it was 32.0%; with C. parvum [3] (48 h, T+ = 100), 6.4%; with C. parvum [4] (T+ = 100), 2.44%. The Number of sporozoites in the data set with C. parvum [1] (hydrochloride) is 47 and 52 and 37; with C. parvum [2] (48 h, hydrochloride), 372 and 199 and 276; with C. parvum [3] (48 h, hydrochloride) it was 90 and 66 and 64. The “Number of sporozoites, Mean” value in the data set with C. parvum [1] stood at 47; in the data set on C. parvum [2] (48 h), 282; in the data set on C. parvum [3] (48 h) it was 73; in the data set on C. parvum [4] it was 28. The “effectiveness compared with paromomycin” value in the data set with C. parvum [2] was “more effective”; in the data set with C. parvum [3], “more effective than paromomycin”. Further, the “reduction in parasite development” value in the data set on C. parvum [2] is listed as 68%; with C. parvum [3], 93.6%. The “reduction of parasite multiplication compared with the nontreated control” value with C. parvum [5] worked out at 31%.

With `NC[C@@H]1O[C@H](O[C@H]2[C@@H](O)[C@H](O[C@@H]3[C@@H](O)[C@H](N)C[C@H](N)[C@H]3O[C@H]3O[C@H](CO)[C@@H](O)[C@H](O)[C@H]3N)O[C@@H]2CO)[C@H](N)[C@@H](O)[C@@H]1O` [Paromomycin, paromomycin sulfate, reference compound], the viability at 500 µg/mL amounted to 0.53% in the data set with C. parvum [1], 66.4% in the data set with C. parvum [2] (48 h), 55.4% in the data set with C. parvum [3] (48 h) and 2.87% with C. parvum [4]. Besides, the “reduction of parasite development” value in the data set with C. parvum [1] amounted to 99.5%; in the data set with C. parvum [4], 97.1%. Besides, the “Number of sporozoites, Mean” value with C. parvum [1] was found to be 6; in the data set with C. parvum [2] (48 h), 592; in the data set with C. parvum [3] (48 h) it was 191; with C. parvum [4], 33. The results for the “reduction in parasite development” value with C. parvum [2] and with C. parvum [3] were 33.6% and 44.6%, respectively. Also, the Number of sporozoites in the data set on C. parvum [3] (48 h) was 208 and 178 and 187.
